SMILES strings stand for the structures. pIC50: −log10 of the molar value.

As usually defined, the pIC50 is the negative decadic logarithm of the IC50, by convention in mol/L. A high value points to a small IC50.

Test [1] is described as follows: Cytotoxicity against vincristine sensitive human KB/S cells. In kind it is functional, cell-based.
A short description of test [2]: Cytotoxicity against vincristine resistant human KB/VJ300 cells. In kind it is functional, cell-based.

Take `CC[C@@]12CC(C(=O)OC)=C3Nc4cc(OC)c(O)cc4[C@@]34CCN(C(=O)[C@@H]3O[C@@H]31)[C@@H]24` [JERANTININE D]: the negative-log IC50 (pIC50) in test [1] is 6.17; in test [2], 6.02.

For the compound `CC[C@]12C=CCN3CC[C@]4(C(=C(C(=O)OC)C1)Nc1cc(OC)c(O)cc14)[C@@H]32` [JERANTININE A], the values for the pIC50 in test [1] and in test [2] were 5.70 and 5.76, respectively.

With `CC[C@@]12CC(C(=O)OC)=C3Nc4cc(OC)c(OC(C)=O)cc4[C@@]34CCN(C[C@@H]3O[C@@H]31)[C@@H]24` [JERANTININE B ACETATE], the pIC50 is 6.15 in test [1] and 6.12 in test [2].

As to `CC[C@]1(O)C[C@H]2CN(CCc3c([nH]c4ccccc34)[C@@](C(=O)OC)(c3cc4c(cc3OC)N(C=O)[C@H]3[C@@](O)(C(=O)OC)[C@H](OC(C)=O)[C@]5(CC)C=CCN6CC[C@]43[C@@H]65)C2)C1` [VINCRISTINE], the pIC50 in test [1] was 8.27; in test [2] it was 5.92.

Take `CC[C@]12C=CC(=O)N3CC[C@]4(C(=C(C(=O)OC)C1)Nc1cc(OC)c(O)cc14)[C@@H]32` [JERANTININE C]: the negative logarithm of the IC50 (pIC50) in test [1] is 6.09; in test [2] it was 5.81.

For the compound `COC(=O)C1=C2Nc3cc(OC)c(O)cc3[C@@]23CCN2CC[C@@H]4OCC[C@]4(C1)[C@H]23` [JERANTININE F], the results for the negative logarithm of the IC50 (pIC50) in test [1] and in test [2] were 4.89 and 4.91, respectively.

As to `CC[C@@]12CC(C(=O)OC)=C3Nc4cc(OC)c(O)cc4[C@@]34CCN(C[C@@H]3O[C@@H]31)[C@@H]24` [JERANTININE B], the figures for the pIC50 in test [1] and in test [2] were 5.95 and 6.02, respectively.

For the compound `CC[C@]12C=CCN3CC[C@]4(C(=C(C(=O)OC)C1)Nc1cc(OC)c(OC)cc14)[C@@H]32` [10-O-METHYLJERANTININE A], the pIC50 in test [1] is 4.92; in test [2], 4.87.

Turning to `CC[C@]12C=CCN3CC[C@]4(C(=C(C(=O)OC)C1)Nc1cc(OC)c(OC(C)=O)cc14)[C@@H]32` [JERANTININE A ACETATE], the negative logarithm of the IC50 (pIC50) in test [1] was 5.98; in test [2], 6.08.

As to `CC[C@]12CCCN3CC[C@]4(C(=C(C(=O)OC)C1)Nc1cc(OC)c(O)cc14)[C@@H]32` [JERANTININE E], the negative logarithm of the IC50 (pIC50) in test [1] was 5.59; in test [2], 5.69.

With `CC[C@@]12CC(C(=O)OC)=C3Nc4cc(OC)c(OC)cc4[C@@]34CCN(C[C@@H]3O[C@@H]31)[C@@H]24` [10-O-METHYLJERANTININE B], the figures for the negative logarithm of the IC50 (pIC50) in test [1] and in test [2] were 5.13 and 4.97, respectively.

For the origin of these results see ChEMBL document CHEMBL1156666, “Jerantinines A-G, cytotoxic Aspidosperma alkaloids from Tabernaemontana corymbosa” (J Nat Prod, 2008).
